US10947574B2, “Method for producing fermented carotenoid using carotenoid-producing bacteria obtained by using cobalt-containing culturing medium” (ENEOS CORPORATION, priority 2015, dated 2021)

Test system: Paracoccus carotinifaciens strain E-396 (FERM BP-4283)
Test: Example 3: cobalt concentration series, growth (OD610) and carotenoid levels (HPLC)
Assay type: cell-based
Procedure: In the following examples, carotenoids were quantified by high performance liquid chromatography (HPLC) as follows.
Two columns of Inertsil SIL-100A, 5 μm (ϕ4.6 mm×250 mm) (GL Sciences Inc., Japan) were connected together for use as a column. For elution, a mixed solution of n-hexane, tetrahydrofuran and methanol (40:20:1) serving as a mobile phase was passed through the column at a flow rate of 1.0 mL per minute at a constant temperature around room temperature. For measurement, samples were each dissolved in tetrahydrofuran and diluted 100-fold with the mobile phase, and 20 μL aliquots of the resulting dilutions were injected into the column. The column eluates were detected at a wavelength of 470 nm. As a standard for quantification, astaxanthin (SIGMA, Cat. No. A9335) was used. The astaxanthin concentration of the standard solution was determined using the following equation after measuring the absorbance (A) of the standard solution at 477 nm and the area percentage % (B) of the astaxanthin peak in HPLC analysis under the above conditions.
Subsequently, a medium of the following composition (glucose 30 g/L, filtered corn steep liquor 30 g/L, ammonium sulfate 1.5 g/L, potassium dihydrogen phosphate 1.5 g/L, disodium hydrogen phosphate dodecahydrate 3.8 g/L, calcium chloride dihydrate 5.0 g/L, magnesium sulfate heptahydrate 0.7 g/L, iron sulfate heptahydrate 1.0 g/L, silicon-based defoaming agent 0.2 g/L) was dispensed in 7.2 ml volumes into cotton-plugged test tubes having an inner diameter of 18 mm to prepare 12 test tubes containing a test tube medium for production. The ingredients used to prepare the test tube medium for production were obtained from lots where microbial cells had been confirmed not to grow well.
The resulting culture solution was then inoculated in 0.05 ml volumes into the 12 types of test tube media for production having different cobalt concentrations, and cultured under shaking at 28° C. for 4 days at 300 spm.
The cobalt concentration in the cobalt chloride-free medium and the concentration of cobalt chloride added to each medium were summed up to calculate the concentration of cobalt present in each medium (Table 6).
After being cultured for 4 days, the culture solutions were each measured for microbial cell growth by OD610 and measure for carotenoid levels by HPLC. […] Moreover, FIGS. 2 to 4 show graphs plotted in enlarged scale for the high and low concentration ranges of cobalt present in the medium.

[1] = cobalt added 0.00042 μmol/L, present 0.0024 μmol/L
[2] = cobalt added 0.0042 μmol/L, present 0.0062 μmol/L
[3] = cobalt added 0.0084 μmol/L, present 0.0104 μmol/L
[4] = cobalt added 0.021 μmol/L, present 0.023 μmol/L
[5] = cobalt added 0.042 μmol/L, present 0.044 μmol/L
[6] = cobalt added 0.42 μmol/L, present 0.42 μmol/L
[7] = cobalt added 1.1 μmol/L, present 1.05 μmol/L
[8] = cobalt added 4.2 μmol/L, present 4.2 μmol/L
[9] = cobalt added 8.4 μmol/L, present 8.4 μmol/L
[10] = cobalt added 21 μmol/L, present 21 μmol/L
[11] = cobalt added 42 μmol/L, present 42 μmol/L

## O.O.O.O.O.O.[Cl-].[Cl-].[Co+2] [Cobalt chloride hexahydrate]
[1]
  Carotenoid: 3-Hydroxyechinenone: 0.1 mg/L
  Carotenoid: Adonirubin: 0.0 mg/L
  Carotenoid: Adonixanthin: 3.0 mg/L
  Carotenoid: Astaxanthin: 0.8 mg/L
  Carotenoid: Asteroidenone: 0.1 mg/L
  Carotenoid: Canthaxanthin: 0.0 mg/L
  Carotenoid: Echinenone: 0.0 mg/L
  Carotenoid: β-Carotene: 0.2 mg/L
  OD610: 5
  Total carotenoid: 4.1 mg/L
[2]
  Carotenoid: 3-Hydroxyechinenone: 0.3 mg/L
  Carotenoid: Adonirubin: 0.4 mg/L
  Carotenoid: Adonixanthin: 7.0 mg/L
  Carotenoid: Astaxanthin: 3.6 mg/L
  Carotenoid: Asteroidenone: 0.3 mg/L
  Carotenoid: Canthaxanthin: 0.1 mg/L
  Carotenoid: Echinenone: 0.2 mg/L
  Carotenoid: β-Carotene: 1.0 mg/L
  OD610: 9
  Total carotenoid: 12.9 mg/L
[3]
  Carotenoid: 3-Hydroxyechinenone: 0.4 mg/L
  Carotenoid: Adonirubin: 1.3 mg/L
  Carotenoid: Adonixanthin: 4.0 mg/L
  Carotenoid: Astaxanthin: 11.7 mg/L
  Carotenoid: Asteroidenone: 0.4 mg/L
  Carotenoid: Canthaxanthin: 0.9 mg/L
  Carotenoid: Echinenone: 0.4 mg/L
  Carotenoid: β-Carotene: 1.1 mg/L
  OD610: 18
  Total carotenoid: 20.2 mg/L
[4]
  Carotenoid: 3-Hydroxyechinenone: 0.5 mg/L
  Carotenoid: Adonirubin: 8.3 mg/L
  Carotenoid: Adonixanthin: 3.1 mg/L
  Carotenoid: Astaxanthin: 26.5 mg/L
  Carotenoid: Asteroidenone: 0.4 mg/L
  Carotenoid: Canthaxanthin: 3.4 mg/L
  Carotenoid: Echinenone: 1.4 mg/L
  Carotenoid: β-Carotene: 1.0 mg/L
  OD610: 34
  Total carotenoid: 44.5 mg/L
[5]
  Carotenoid: 3-Hydroxyechinenone: 0.5 mg/L
  Carotenoid: Adonirubin: 6.4 mg/L
  Carotenoid: Adonixanthin: 3.5 mg/L
  Carotenoid: Astaxanthin: 25.5 mg/L
  Carotenoid: Asteroidenone: 0.4 mg/L
  Carotenoid: Canthaxanthin: 2.6 mg/L
  Carotenoid: Echinenone: 1.2 mg/L
  Carotenoid: β-Carotene: 0.8 mg/L
  OD610: 35
  Total carotenoid: 40.9 mg/L
[6]
  Carotenoid: 3-Hydroxyechinenone: 0.7 mg/L
  Carotenoid: Adonirubin: 5.8 mg/L
  Carotenoid: Adonixanthin: 3.2 mg/L
  Carotenoid: Astaxanthin: 28.6 mg/L
  Carotenoid: Asteroidenone: 0.5 mg/L
  Carotenoid: Canthaxanthin: 2.3 mg/L
  Carotenoid: Echinenone: 1.2 mg/L
  Carotenoid: β-Carotene: 0.8 mg/L
  OD610: 37
  Total carotenoid: 42.9 mg/L
[7]
  Carotenoid: 3-Hydroxyechinenone: 0.4 mg/L
  Carotenoid: Adonirubin: 7.0 mg/L
  Carotenoid: Adonixanthin: 1.7 mg/L
  Carotenoid: Astaxanthin: 26.8 mg/L
  Carotenoid: Asteroidenone: 0.3 mg/L
  Carotenoid: Canthaxanthin: 3.1 mg/L
  Carotenoid: Echinenone: 1.2 mg/L
  Carotenoid: β-Carotene: 0.8 mg/L
  OD610: 37
  Total carotenoid: 41.3 mg/L
[8]
  Carotenoid: 3-Hydroxyechinenone: 0.2 mg/L
  Carotenoid: Adonirubin: 14.3 mg/L
  Carotenoid: Adonixanthin: 0.7 mg/L
  Carotenoid: Astaxanthin: 14.2 mg/L
  Carotenoid: Asteroidenone: 0.1 mg/L
  Carotenoid: Canthaxanthin: 8.1 mg/L
  Carotenoid: Echinenone: 1.4 mg/L
  Carotenoid: β-Carotene: 0.7 mg/L
  OD610: 33
  Total carotenoid: 39.7 mg/L
[9]
  Carotenoid: 3-Hydroxyechinenone: 0.1 mg/L
  Carotenoid: Adonirubin: 11.9 mg/L
  Carotenoid: Adonixanthin: 0.3 mg/L
  Carotenoid: Astaxanthin: 9.3 mg/L
  Carotenoid: Asteroidenone: 0.1 mg/L
  Carotenoid: Canthaxanthin: 9.9 mg/L
  Carotenoid: Echinenone: 2.0 mg/L
  Carotenoid: β-Carotene: 0.8 mg/L
  OD610: 31
  Total carotenoid: 34.4 mg/L
[10]
  Carotenoid: 3-Hydroxyechinenone: 0.1 mg/L
  Carotenoid: Adonirubin: 6.5 mg/L
  Carotenoid: Adonixanthin: 0.2 mg/L
  Carotenoid: Astaxanthin: 1.9 mg/L
  Carotenoid: Asteroidenone: 0.1 mg/L
  Carotenoid: Canthaxanthin: 9.4 mg/L
  Carotenoid: Echinenone: 2.8 mg/L
  Carotenoid: β-Carotene: 1.2 mg/L
  OD610: 23
  Total carotenoid: 22.2 mg/L
[11]
  Carotenoid: 3-Hydroxyechinenone: 0.0 mg/L
  Carotenoid: Adonirubin: 0.2 mg/L
  Carotenoid: Adonixanthin: 0.0 mg/L
  Carotenoid: Astaxanthin: 0.1 mg/L
  Carotenoid: Asteroidenone: 0.0 mg/L
  Carotenoid: Canthaxanthin: 0.1 mg/L
  Carotenoid: Echinenone: 0.0 mg/L
  Carotenoid: β-Carotene: 0.0 mg/L
  OD610: 3
  Total carotenoid: 0.4 mg/L
